Laboratory results taken from patent US20250346615A1, “GLYCEROPHOSP[…] PREVENTING AND TREATING COVID-19 INFECTIONS AND METHOD FOR OBTAINING IT” (PLANTAREI BIOTECH S.R.L., priority 2022, published 2025).
Read-outs that look alike come from different tables or passages of the source.

What was measured:
Human monocytes [1] = settings: GPI 300 uM; for protein expression level (fold increase over control cells): LPS stimulus
Excerpt: (§1) The purpose of the experiments conducted is the in vitro evaluation of the anti-inflammatory activity and of the immune modulating power in the response to bacterial or viral activation, of monocytes activated and treated with GPI. Measurements of protein production or miRNA levels were expressed as an increase relative to the respective control (unstimulated) cells.
Human monocytes were isolated from fresh buffy coats of healthy blood donors, kindly provided by the Centro Immunotrasfusionale, Hospital of Ferrara, Italy, through a Ficoll-Paque™ PLUS gradient followed by Percoll™. PBMCs were firstly obtained by 1.077 g/ML Ficoll-Paque™ PLUS (GE Healthcare Life Sciences, Little Chalfont, UK) density gradient separation according to the manufacturer's protocol. After collecting the mononuclear cells located at the interface between Ficoll and plasma-medium layer, these were washed with PBS, then layered over a solution of 1.130 g/mL Percoll™ (GE Healthcare Life Sciences) before centrifugation at 1650 rpm for 30 min at 4° C. The monocyte layer, which appeared cloudy and occasionally with few red spots, was carefully aspirated and washed with PBS to remove traces of Percoll™. The harvested monocytes were then suspended in RPMI 1640 medium (EuroClone) containing 2% FBS, and incubated at 37° C. and 5% CO2. After 1 h, non-adherent cells including residual lymphocytes were removed, and monocytes were detached using a cell scraper, then seeded onto plastic culture wells. […]
The supernatants of the cultures after 5 and 24 h were collected, centrifuged at 400×g for 10 min at 4° C., then analyzed for TF HGF, PGE-2 and IL-10 production using commercial ELISA kits (Thermo Fisher Scientific) according to the manufacturer's instructions. […]
Measurements of protein production or miRNA levels were expressed as fold increase over the respective control (unstimulated) cells, and are means (SD) of triplicates from one representative experiment of 4 experiments performed with cells from different donors.

Human monocytes [2] = settings: GPI 300 uM, 24 hours of treatment (FIG. 5)
Excerpt: as §1
Human monocytes were isolated from fresh buffy coats of healthy blood donors, kindly provided by the Centro Immunotrasfusionale, Hospital of Ferrara, Italy, through a Ficoll-Paque™ PLUS gradient followed by Percoll™. […]
Total RNA was extracted from cultures after 12 and 24 h using the total RNA purification Plus kit, The RNA quality and concentration of the samples were measured with the NanoDrop™ ND-1000 (Thermo Fisher Scientific). […]
Real-time PCR was performed according to the user's manual of the Inflammatory RT^2 profiler PCR Array (Qiagen) with a StepOnePlus™ Real-Time PCR System (Applied Biosystems™, Foster City, CA, USA) and using RT^2 SYBR Green ROX FAST Master Mix (Qiagen). Thermal cycling and fluorescence detection were as follows: 95° C. for 10 min, followed by 40 cycles of 95° C. for 15 s, and 60° C. for 1 min. […] Data were analyzed using the Web-based PCR array data analysis software, which is available at https://www.qiagen.com/it/shop/genes-and-pathways/data-analysis-center-overview-page/. […]

Human monocytes [3] = settings: GPI 300 uM, activated monocytes, 24 hours of treatment (FIG. 6)
Excerpt: Human monocytes were isolated from fresh buffy coats of healthy blood donors, kindly provided by the Centro Immunotrasfusionale, Hospital of Ferrara, Italy, through a Ficoll-Paque™ PLUS gradient followed by Percoll™. PBMCs were firstly obtained by 1.077 g/ML Ficoll-Paque™ PLUS (GE Healthcare Life Sciences, Little Chalfont, UK) density gradient separation according to the manufacturer's protocol. After collecting the mononuclear cells located at the interface between Ficoll and plasma-medium layer, these were washed with PBS, then layered over a solution of 1.130 g/mL Percoll™ (GE Healthcare Life Sciences) before centrifugation at 1650 rpm for 30 min at 4° C. The monocyte layer, which appeared cloudy and occasionally with few red spots, was carefully aspirated and washed with PBS to remove traces of Percoll™. The harvested monocytes were then suspended in RPMI 1640 medium (EuroClone) containing 2% FBS, and incubated at 37° C. and 5% CO2. After 1 h, non-adherent cells including residual lymphocytes were removed, and monocytes were detached using a cell scraper, then seeded onto plastic culture wells.
Treatment with GPI: 300 uM. […]
Measurements of protein production or miRNA levels were expressed as fold increase over the respective control (unstimulated) cells, and are means (SD) of triplicates from one representative experiment of 4 experiments performed with cells from different donors. […]

L-α-glycero-phospho-D-myo-inositol [GPI]
protein expression level (fold increase over control cells) (Human monocytes [1]; 5 hours of treatment (FIG. 3)): inhibitory effects | protein expression level (fold increase over control cells) (Human monocytes [1]; 24 hours of treatment (FIG. 4)): inhibitory effects | inflammatory cytokine production (Human monocytes [1]; monocytes in inflammation / LPS sepsis / viral infection mimicking environment): reduce | miRNA level related to M1 (inflammatory) or M2 (antiinflammatory) commitment (Human monocytes [2]): inhibitory effects | production of IL12 and 23 during inflammation (Human monocytes [3]): reduction
